The subject of data set [1] is Actinomyces naeslundii (ATCC 19039). The experiment in a line: Microdilution MIC/MMC (INT) against Actinomyces naeslundii. The note with it: A.n, Gram +ve, table title says mg/mL; for MBC: MMC in title. In kind it is cell-based. The method, then:
(§1) The microorganisms used in this study include Actinomyces naeslundii (ATCC 19039), Actinomyces israelii (ATCC 10049), Aggregatibacter actinomycetemcomitans (ATCC 33384), Candida albicans (Med I), Porphyromonas gingivalis (ATCC 33277), Prevotella intermedia (ATCC 25611), and Streptococcus mutans (ATCC 25175). Bacteria were grown in the Casein-peptone Soy Agar medium (CASO) (Merck SA (Pty) Ltd.) under anaerobic conditions in a jar with anaerocult A (Merck SA (Pty) Ltd.), at 37°C for 48 hours. Sabouraud Dextrose Agar medium (SDA) (Merck SA (Pty) Ltd.) was used for the culturing of Candida albicans and incubated at 37°C for 24 hours under aerobic conditions. Subculturing was done once weekly.
(§2) The microdilution technique using 96-well microplates was used to obtain the MIC and MMC values of the crude extract against microorganisms under study. The extract was serially diluted in the 96-well plate with 48 hours old microorganisms (5 × 10^6 CFU/mL) grown at 37°C and the final concentration of extract and positive control (CHX) ranged from 25.0 mg/mL to 0.8 mg/mL. Microbial growth was indicated by adding 40 μL of (0.2 mg/mL) p-iodonitrotetrazolium violet (INT) (Sigma-Aldrich, South Africa) to microplate wells and incubated at 37°C for 48 hours. MIC was defined as the lowest concentration that inhibited the colour change of INT. […] These suspensions were reincubated at 37°C for 48 hours. The MMC was determined as the lowest concentration of extract which inhibited 100% growth of microorganisms.

Data set [2] deals with Actinomyces israelii (ATCC 10049). The experiment in a line: Microdilution MIC/MMC (INT) against Actinomyces israelii. The format is cell-based. Conditions: A.i, Gram +ve, table title says mg/mL; for MBC: MMC in title. The method, then: as §1, §2
Data set [3] concerns Aggregatibacter actinomycetemcomitans (ATCC 33384). The experiment in a line: Microdilution MIC/MMC (INT) against Aggregatibacter actinomycetemcomitans. The format is cell-based. Conditions: A.a, Gram –ve, table title says mg/mL; for MBC: MMC in title. As to the method:
as §1, §2

The test system of data set [4] is Prevotella intermedia (ATCC 25611). Briefly: Microdilution MIC/MMC (INT) against Prevotella intermedia. In kind it is cell-based. Conditions: P.i, Gram –ve, table title says mg/mL; for MBC: MMC in title. As to the method: as §1, §2
The test system of data set [5] is Porphyromonas gingivalis (ATCC 33277). Briefly: Microdilution MIC/MMC (INT) against Porphyromonas gingivalis. In kind it is cell-based. Conditions: P.g, Gram –ve, table title says mg/mL; for MBC: MMC in title. The method, then:
as §1, §2

Data set [6] has as its system Candida albicans (Med I). The experiment in a line: Microdilution MIC/MMC (INT) against Candida albicans. The format is cell-based. Conditions: C.a, Yeast, table title says mg/mL; for MBC: MMC in title. The method, then:
as §1, §2

The test system of data set [7] is oral microorganisms. The experiment in a line: Microdilution MIC/MMC, summary over tested microbial species. The format is cell-based. The note with it: against A. israelii and A. naeslundii. The method, then: as §1, §2
The nature of data set [8]: DPPH free radical scavenging assay. The format is biochemical. The note with it: 37°C, 30 min, 517 nm. As to the method: The free radical scavenging activity was measured using 1, 1 diphenyl-2-picryl-hydraxyl (DPPH) assay with slight modifications. The ethanol extract of A. afra and Vitamin C (positive control) 1000 μg/mL (20 μL) was added in the first three wells of a 96-well plate containing 200 μL of distilled water to make up final concentration of 100 μg/mL and the remaining wells were filled with 110 μL of distilled water. The first raws containing the extract/compounds were serially diluted to wells which contain 110 μL of distilled water, and later, 90 μL of methanolic solution of DPPH ([…]) was added to all the wells. The final concentrations of the extract/compounds ranged from 100 to 0.8 μg/mL. The plates were incubated at 37°C for 30 min and the absorbance was measured at 517 nm using the ELISA plate reader. The percent radical scavenging activity by A. afra was determined by comparison with ethanol (blank). The inhibition ratio was calculated as follows: % DPPH radical-scavenging = (AC-AS)/AC × 100, where AC is absorbance of the control solution (containing only DPPH solution), and AS is the absorbance of the sample in DPPH solution. The percentage of DPPH radical-scavenging was plotted against the plant extract/compounds concentrations (μg/mL) to determine the concentration of extract/compound required to scavenge DPPH by 50% (EC50).

A short description of data set [9]: XTT cell proliferation (cytotoxicity) assay on McCoy cells. In kind it is cell-based. Conditions: mouse. As to the method:
(§3) Extract and compounds were dissolved in dimethyl sulfoxide (DMSO) and stored at −20°C. All tested compounds were diluted to the final concentration with RPMI 1640 and control cultures were diluted with 0.1% DMSO.
(§4) McCoy cells were maintained in monolayer culture at 37°C and 5% CO2 with 10% […] Medium, 10 μg/mL of penicillin, 10 μg/mL, streptomycin, 40 μg/mL gentamycin, and 0.25 μg/mL fungizone.
(§5) A microtiter plate with McCoy cells was used for testing all the ethanol extracts for cytotoxicity following the method of [26]. Cytotoxicity was measured by the XTT (sodium 3′-[1-(phenyl amino-carbonyl)-3,4-tetrazolium]-bis-[4-methoxy-6-nitro] benzene sulfonic acid hydrate) method using a cell proliferation kit II (Roche Diagnostics GmbH). Hundred microlitres of McCoy cells (1 × 10^5 mL) was seeded onto a microtiter plate and incubated for 24 h to allow the cells to attach to the bottom of the plate. Dilution series were made of the extract and compound and the various concentrations (400 to 3.1 μg/mL) were added to the microtitre plate and incubated for 48 h. The XTT reagents were added to a final concentration of 0.3 mg/mL and the cells were incubated for 1-2 hours. The positive drug control (Zearalenone) at concentrations range of (10 μg/mL to 0.6 μg/mL) was included in the assay. After incubation the absorbance of the colour was spectrophotometrically quantified using an ELISA plate reader, which measured the optical density at 490 nm with a reference wavelength of 690 nm. The assay was carried out in triplicate.

The subject of data set [10] is lung cancer (A549) cell. Further details: method as in PMID 15246561. Conditions: A549 cells; read-out: IC50 cell proliferation; cited from earlier work.
Data set [11] concerns McCoy fibroblast cells. The experiment in a line: XTT cell proliferation (cytotoxicity) assay on McCoy cells. Conditions: McCoy cells, XTT, 48 h. The format is cell-based. The method, then: as §3, §4, §5
Where [12] appears, read: Actinomyces naeslundii, ATCC19039.
[13] abbreviates: Actinomyces israelii, ATCC10049.
[14] abbreviates: Aggregatibacter actinomycetemcomitans, ATCC33384.
Setting [15] is: Prevotella intermedia, ATCC25611.
[16] abbreviates: Porphyromonas gingivalis, ATCC33277.

Data on 2 compounds can be found in article PMC3369547, “Antimicrobial Constituents of Artemisia afra Jacq. ex Willd. against Periodontal Pathogens” (Evidence-based Complementary and Alternative Medicine : eCAM, 2012).

In brackets after ≈: the same amount, converted by molar mass.

Consider `COc1ccc(-c2cc(=O)c3c(O)cc(O)cc3o2)cc1` [compound 1, acacetin], for which the MBC in data set [1] (setting [12]) was 1000 µg/mL (≈ 3.52 mM); in [2] (setting [13]) it was 500 µg/mL (≈ 1.76 mM); in [3] (setting [14]), > 1000 µg/mL; in data set [4] (setting [15]), > 1000 µg/mL; in [5] (setting [16]), > 1000 µg/mL; in data set [6], > 1000 µg/mL. For the same compound, the MIC in [1] (setting [12]) was 1000 µg/mL (≈ 3.52 mM); in data set [2] (setting [13]) it was 250 µg/mL (≈ 0.879 mM); in data set [3] (setting [14]) it was > 1000 µg/mL; in [4] (setting [15]), 1000 µg/mL (≈ 3.52 mM); in data set [5] (setting [16]), 1000 µg/mL (≈ 3.52 mM); in [6], > 1000 µg/mL. In data set [7] (read-out: lowest MIC and MMC value), the MIC stood at 250 µg/mL (≈ 0.879 mM). In addition, the “DPPH scavenging IC50” value in data set [8] amounted to 2.39 µg/mL. The compound also displayed an IC50 at 48 h in data set [9] of 35.4 µg/mL (≈ 0.125 mM). For the same compound, the IC50 in data set [10] is 9.46 µM.

Take scopoletin [compound 3]: the MBC in [1] was >1.0 µg/mL; in data set [2], 500 µg/mL; in data set [3], > 1000 µg/mL; in [4] it was 1.0 µg/mL; in data set [5], > 1000 µg/mL; in [6] it was > 1000 µg/mL. Besides, the MIC was 1000 µg/mL in data set [1]; 250 µg/mL in data set [2]; > 1000 µg/mL in [3]; 500 µg/mL in data set [4]; >1.0 µg/mL in data set [5]; > 1000 µg/mL in data set [6]. The “lowest MIC and MMC value” in data set [7] turned out to be 250 µg/mL. Further, the “DPPH scavenging IC50” value in data set [8] is 1.24 µg/mL. Moreover, the “IC50 (cytotoxicity)” value in data set [11] worked out at 132.5 µg/mL.
